Results as given in patent US8481576B2 (Abbott GmbH & Co. KG, priority 2004, dated 2013).
pKi: −log10 of the molar value. Where a name gives a salt, the structure may show the parent alone.

Biological target: T1, h5-HT5A receptor (Homo sapiens, UniProt P47898)
T1 construct: expressed in transfected cells; host or cells: HEK293
Assay: [3H]5-CT binding assay h5-HT5A
Conditions: membranes from HEK293 cells expressing h5-HT5A, 2.5 nM [3H]5-CT; read-out: Binding affinity 5-HT5A (Ki)
Experimental: 1. [^3H]5-CT binding assay h5-HT5A
Membranes from HEK293-cells, which permanently express the h5-HT5A receptor gene, were incubated in 100 mM Tris-HCl-buffer (pH 7.7), containing 1 mM EDTA in the presence of 2.5 nM [^3H]5-CT (600 μl total volume). The total binding is defined as the binding which is observed when the membranes are incubated alone in the presence of the radioligand. The inhibition induced by the compound is determined by incubation of cell membranes in the presence of the radioligand, and of different concentrations of the compound of interest. Unspecific binding is defined by the binding of [^3H]5-CT, which is obtained by incubation of the membranes as for the total binding but in the presence of 10 μM methiothepine. Following an incubation of 75 minutes at 30° C. the membrane suspension is filtered through GF/B-filters, wrapped in 0.03% PEI, wherein a Skatron® harvest system is used. The radioactivity retained in the filter is quantified by liquid scintillation counting.
In both assays, different concentrations of the test substances are used, and the Ki or the IC50 values are determined.

T1 sequence (P47898 whole entry): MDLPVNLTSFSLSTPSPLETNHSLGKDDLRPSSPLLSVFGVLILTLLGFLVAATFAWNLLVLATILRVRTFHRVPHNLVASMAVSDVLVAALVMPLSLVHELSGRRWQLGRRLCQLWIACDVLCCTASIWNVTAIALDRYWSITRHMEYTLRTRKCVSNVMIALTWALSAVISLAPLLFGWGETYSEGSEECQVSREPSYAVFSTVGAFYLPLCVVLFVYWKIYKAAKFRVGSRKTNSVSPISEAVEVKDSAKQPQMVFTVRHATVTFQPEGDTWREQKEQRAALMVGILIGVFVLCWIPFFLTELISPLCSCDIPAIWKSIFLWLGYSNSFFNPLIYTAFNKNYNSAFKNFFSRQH

Question: With `COc1cccc(OC)c1CNC(=N)Nc1nc(-c2cc(-c3ccccc3)no2)cs1` [Example 83, N-(2,6-dimethoxybenzyl)-N′-[4-(3-phenylisoxazole-5-yl)-1,3-thiazole-2-yl]guanidine hydrobromide] as the compound, how does the pKi read?
Answer: Its pKi is over 7.30.

Question: How did the pKi turn out when `COc1cccc(OC)c1CNC(=N)Nc1nc(-c2cccc(Cl)c2)cs1` [Example 89, N-[4-(3-chlorophenyl)-1,3-thiazole-2-yl]-N′-(2,6-dimethoxybenzyl)guanidine hydrobromide] was run?
Answer: Its pKi is over 7.30.

Question: How did the pKi turn out when “N-(2-methoxybenzyl)-N′-1,3-thiazole-2-ylguanidine hydrochloride [Example 11]” was run?
Answer: The pKi was 6.30 to 7.30.

Question: With `COc1ccccc1CNC(=N)Nc1nc2ccc(C)cc2s1` [Example 168, N-(2-methoxybenzyl)-N′-(6-methyl-1,3-benzothiazole-2-yl)guanidine fumarate] as the compound, how does the pKi read?
Answer: Its pKi is 6.30 to 7.30.

Question: How did the pKi turn out when `COc1cccc(OC)c1CNC(=N)Nc1nc(-c2ccc3c(c2)CCO3)cs1` [Example 115, N-[4-(2,3-dihydro-1-benzofuran-5-yl)-1,3-thiazole-2-yl]-N′-(2,6-dimethoxybenzyl)guanidine] was run?
Answer: The pKi was over 7.30.

Question: How did the pKi turn out when `COc1cccc(OC)c1CNC(=N)Nc1nc(-c2ccc(F)cn2)cs1` [Example 144, N-(2,6-dimethoxybenzyl)-N′-[4-(5-fluoropyridine-2-yl)-1,3-thiazole-2-yl]guanidine] was run?
Answer: Its pKi is over 7.30.

Question: How did the pKi turn out when `COc1ccccc1CNC(=N)Nc1nc(-c2ccncc2)cs1` [Example 46, N-(2-methoxybenzyl)-N′-(4-pyridine-4-yl-1,3-thiazole-2-yl)guanidine] was run?
Answer: Its pKi is over 7.30.

Question: How did the pKi turn out when `COc1ccccc1CNC(=N)Nc1nc(N2CCCCC2)cs1` [Example 166, 1-[2-({imino[(2-methoxybenzyl)amino]methyl}amino)-1,3-thiazole-4(5H)-ylidene]piperidinium chloride] was run?
Answer: The pKi was under 6.30.

Question: With `COc1cccc(OC)c1CNC(=N)Nc1nc2cc(Cl)c(C)cc2s1` [Example 171, N-(5-chlor-6-methyl-1,3-benzothiazole-2-yl)-N′-(2,6-dimethoxybenzyl)guanidine difumarate] as the compound, how does the pKi read?
Answer: The pKi was 6.30 to 7.30.

Question: With `CCN(CC)c1ccc(-c2csc(NC(=N)NCc3c(OC)cccc3OC)n2)cc1` [Example 62, N-{4-[4-(diethylamino)phenyl]-1,3-thiazole-2-yl}-N′-(2,6-dimethoxybenzyl)guanidine] as the compound, how does the pKi read?
Answer: Its pKi is 6.30 to 7.30.

Question: With `COc1ccccc1CNC(=N)Nc1cc(-c2ccccc2)[nH]n1` [Example 201, N-(2-methoxybenzyl)-N′-(5-phenyl-1H-pyrazole-3-yl)guanidine] as the compound, how does the pKi read?
Answer: Its pKi is over 7.30.

Question: With `COc1cccc(OC)c1CNC(=N)Nc1nc(-c2ccc(Cl)cn2)cs1` [Example 123, N-[4-(5-chloropyridine-2-yl)-1,3-thiazole-2-yl]-N′-(2,6-dimethoxybenzyl)guanidine acetate] as the compound, how does the pKi read?
Answer: Its pKi is over 7.30.

Question: `COc1cccc(OC)c1CNC(=N)Nc1nc(-c2ccc(-c3ccccc3)cc2)cs1` [Example 74, N-(4-biphenyl-4-yl-1,3-thiazole-2-yl)-N′-(2,6-dimethoxybenzyl)guanidine hydrobromide] was tested. Which pKi did it give?
Answer: The pKi was over 7.30.

Question: With `COc1cccc(CNC(=N)Nc2nccs2)c1` [Example 14, N-(3-methoxybenzyl)-N′-1,3-thiazole-2-ylguanidine hydrochloride] as the compound, how does the pKi read?
Answer: The pKi was 6.30 to 7.30.

Question: With `COc1cccc(OC)c1CNC(=N)Nc1nc(C(C)C)cs1` [Example 131, N-(2,6-dimethoxybenzyl)-N′-(4-isopropyl-1,3-thiazole-2-yl)guanidine] as the compound, how does the pKi read?
Answer: Its pKi is over 7.30.

Question: How did the pKi turn out when `COc1cccc(OC)c1CNC(=N)Nc1nc(-c2ccc(N3CCCC3)cc2)cs1` [Example 63, N-(2,6-dimethoxybenzyl)-N′-[4-(4-pyrrolidine-1-ylphenyl)-1,3-thiazole-2-yl]guanidine hydrobromide] was run?
Answer: The pKi was over 7.30.

Question: With `COc1ccccc1CNC(=N)Nc1nc(C)c(C)o1` [Example 173, N-(4,5-dimethyl-1,3-oxazole-2-yl)-N′-(2-methoxybenzyl)guanidine] as the compound, how does the pKi read?
Answer: Its pKi is 6.30 to 7.30.

Question: `N=C(NCCOc1ccccc1Cl)Nc1nccs1` [Example 29, N-[2-(2-chlorophenoxy)ethyl]-N′-1,3-thiazole-2-ylguanidine (2E)-But-2-endioate] was tested. Which pKi did it give?
Answer: The pKi was 6.30 to 7.30.

Question: `COc1cccc(C)c1CNC(=N)Nc1cc(C(C)(C)C)[nH]n1` [Example 216, N-(5-tert-butyl-1H-pyrazole-3-yl)-N′-(2-methoxy-6-methylbenzyl)guanidine] was tested. Which pKi did it give?
Answer: Its pKi is over 7.30.

Question: With `COc1cccc(OC)c1CNC(=N)Nc1nc(-c2cc(F)cc(F)c2)cs1` [Example 68, N-[4-(3,5-difluorophenyl)-1,3-thiazole-2-yl]-N′-(2,6-dimethoxybenzyl)guanidine hydrobromide] as the compound, how does the pKi read?
Answer: Its pKi is over 7.30.

Question: How did the pKi turn out when `COc1cccc(OC)c1CNC(=N)Nc1nc(-c2ccncc2)cs1` [Example 45, N-(2,6-dimethoxybenzyl)-N′-(4-pyridine-4-yl-1,3-thiazole-2-yl)guanidine] was run?
Answer: Its pKi is over 7.30.

Question: With `COc1ccccc1CCNC(=N)Nc1nccs1` [Example 16, N-[2-(2-methoxyphenyl)ethyl]-N′-1,3-thiazole-2-ylguanidine hydrochloride] as the compound, how does the pKi read?
Answer: The pKi was under 6.30.

Question: With `COc1cccc(OC)c1CNC(=N)Nc1nc(-c2ccc(F)cc2)cs1` [Example 56, N-(2,6-dimethoxybenzyl)-N′-[4-(4-fluorophenyl)-1,3-thiazole-2-yl]guanidine] as the compound, how does the pKi read?
Answer: The pKi was over 7.30.

Question: With `COc1cccc(OC)c1CNC(=N)Nc1nc2c(s1)CNCC2` [Example 223, N-(2,6-dimethoxybenzyl)-N′-(4,5,6,7-tetrahydro[1,3]thiazolo[5,4-c]pyridine-2-yl)guanidine] as the compound, how does the pKi read?
Answer: Its pKi is over 7.30.

Question: `COc1cccc(OC)c1CNC(=N)Nc1nc(-c2cccc(C(F)(F)F)c2)cs1` [Example 108, N-(2,6-dimethoxybenzyl)-N′-{4-[3-(trifluoromethyl)phenyl]-1,3-thiazole-2-yl}guanidine] was tested. Which pKi did it give?
Answer: The pKi was under 6.30.

Question: How did the pKi turn out when `COc1cccc(OC)c1CNC(=N)Nc1nc(C2CCCN2C(C)C)cs1` (centres unmarked) [Example 156, N-(2,6-dimethoxybenzyl)-N′-[4-(1-isopropylpyrrolidine-2-yl)-1,3-thiazole-2-yl]guanidine] was run?
Answer: Its pKi is 6.30 to 7.30.

Question: `CC(=O)c1cccc(OCCCNC(=N)Nc2nccs2)c1` [Example 23, N-[3-(3-acetylphenoxy)propyl]-N′-1,3-thiazole-2-ylguanidine (2E)-But-2-endioate] was tested. Which pKi did it give?
Answer: The pKi was under 6.30.

Question: How did the pKi turn out when `COc1cccc(OC)c1CNC(=N)Nc1nc(-c2c(OC)cccc2OC)cs1` [Example 113, N-(2,6-dimethoxybenzyl)-N′-[4-(2,6-dimethoxyphenyl)-1,3-thiazole-2-yl]guanidine] was run?
Answer: Its pKi is over 7.30.

Question: With `COc1cccc(OC)c1CNC(=N)Nc1nc(-c2ccccc2)co1` [Example 199, N-(2,6-dimethoxybenzyl)-N′-(4-phenyl-1,3-oxazole-2-yl)guanidine] as the compound, how does the pKi read?
Answer: Its pKi is over 7.30.

Question: `COc1cccc(OC)c1CNC(=N)Nc1nc(-c2cc(Cl)cs2)cs1` [Example 124, N-[4-(4-chloro-2-thienyl)-1,3-thiazole-2-yl]-N′-(2,6-dimethoxybenzyl)guanidine] was tested. Which pKi did it give?
Answer: The pKi was over 7.30.

Question: `COc1cccc(OC)c1CNC(=N)Nc1ncc(C)s1` [Example 55, N-(2,6-dimethoxybenzyl)-N′-(5-methyl-1,3-thiazole-2-yl)guanidine] was tested. Which pKi did it give?
Answer: Its pKi is over 7.30.

Question: How did the pKi turn out when `COc1ccc(F)cc1CNC(=N)Nc1nc(-c2ccccc2)cs1` [Example 129, N-(5-fluoro-2-methoxybenzyl)-N′-(4-phenyl-1,3-thiazole-2-yl)guanidine] was run?
Answer: Its pKi is 6.30 to 7.30.

Question: `COc1cccc(OC)c1CNC(=N)Nc1n[nH]c2ccccc12` [Example 180, N-(2,6-dimethoxybenzyl)-N′-1H-indazole-3-ylguanidine acetate] was tested. Which pKi did it give?
Answer: Its pKi is over 7.30.

Question: With `Cc1ccc(C)c(CNC(=N)Nc2nccs2)c1` [Example 4, N-(2,5-dinnethylbenzyl)-N′-1,3-thiazole-2-ylguanidine hydrochloride] as the compound, how does the pKi read?
Answer: Its pKi is 6.30 to 7.30.

Question: `COc1cccc(OC)c1CNC(=N)Nc1nc(CN)cs1` [Example 154, N-[4-(aminomethyl)-1,3-thiazole-2-yl]-N′-(2,6-dimethoxybenzyl)guanidine hydrochloride] was tested. Which pKi did it give?
Answer: Its pKi is over 7.30.

Question: How did the pKi turn out when `COc1cccc(OC)c1CNC(=N)Nc1nc2ccccc2s1` [Example 27, N-1,3-benzothiazole-2-yl-N′-(2,6-dimethoxybenzypguanidine (2E)-But-2-endioate] was run?
Answer: The pKi was over 7.30.

Question: With `COc1cccc(OC)c1CNC(=N)Nc1nc2c(s1)CN(S(=O)(=O)c1ccccc1)CC2` [Example 225, N-(2,6-dimethoxybenzyl)-N′-[5-(phenylsulfonyl)-4,5,6,7-tetrahydro[1,3]thiazolo[5,4-c]pyridine-2-yl]guanidine] as the compound, how does the pKi read?
Answer: Its pKi is over 7.30.

Question: How did the pKi turn out when `COc1cccc(OC)c1CNC(=N)Nc1nc(-c2ccc(N(C)C)cc2)cs1` [Example 110, N-(2,6-dimethoxybenzyl)-N′-{4-[4-(dimethylamino)phenyl]-1,3-thiazole-2-yl}guanidine hydrobromide] was run?
Answer: Its pKi is over 7.30.

Question: How did the pKi turn out when `COc1ccccc1CNC(=N)Nc1nc(-c2ccccc2Cl)cs1` [Example 43, N-[4-(2-chlorophenyl)-1,3-thiazole-2-yl]-N′-(2-methoxybenzyl)guanidine (2E)-But-2-endioate] was run?
Answer: The pKi was 6.30 to 7.30.

Question: `COc1cccc(OC)c1CNC(=N)Nc1ncc(-c2ccccc2)s1` [Example 66, N-(2,6-dimethoxybenzyl)-M-(5-phenyl-1,3-thiazole-2-yl)guanidine hydrobromide] was tested. Which pKi did it give?
Answer: Its pKi is over 7.30.

Question: With `COc1cccc(OC)c1CNC(=N)Nc1nc(-c2nc3ccccc3s2)cs1` [Example 88, N-[4-(1,3-benzothiazole-2-yl)-1,3-thiazole-2-yl]-N′-(2,6-dimethoxybenzyl)guanidine hydrobromide] as the compound, how does the pKi read?
Answer: Its pKi is over 7.30.
